Converted amounts (≈) assume the structure as drawn.
Experiments:
B. subtilis (W168) = assay: MIC, broth microdilution (CLSI); format: cell-based; settings: Bacillus subtilis
Procedure: B. subtilis, staphylococcal, and enterococcal strains were grown in Mueller Hinton broth (MHB), while streptococcal strains were grown in MHB supplemented with 5% laked horse blood. All strains were grown for 18 h at 37 °C. The overnight cultures were subsequently subcultured 1:200 and grown to the exponential phase (OD600nm = 0.5–0.6) in fresh broth. 1771 and its derivatives 9–14 were reconstituted in DMSO and further diluted by performing a 1:2 serial dilution ranging between 256 and 0.125 μg/mL in a 96-well microtiter plate. One hundred microliters of 0.5 McFarland standardized inoculum (approximately equal to 5 × 10^5 cfu) were then dispensed into each well in the 96-well microtiter plate. The plate was incubated for 18 h at 37 °C.

E. coli strain K12 [1] = assay: Growth inhibition in combination with PAβN; format: cell-based, Escherichia coli; settings: for concentration at which growth was completely inhibited: E. coli K12, 50 μg/mL PAβN; for MIC: Escherichia coli, E. coli K12, 100 μg/mL PAβN
Procedure: (§1) Phenylalanine-arginine β-naphthylamide (PAβN) is a well-studied efflux pump inhibitor, which can also permeabilize the outer membrane of Gram-negative organisms.[40] […] Without the addition of PAβN (0 μg/mL), neither 1771 nor 13 had any growth inhibitory activity at concentrations up to 64 μg/mL. With the addition of 25 μg/mL of PAβN, the E. coli strain K12 could still grow in the presence of 64 μg/mL of 1771 or 13; however, the growth rate was severely impacted in a dose-dependent manner. […] To further evaluate the Gram-negative coverage of 1771 and 13, we also tested 1771 or 13 in combination with PAβN against Pseudomonas aeruginosa strain PAO1, Klebsiella pneumoniae strain 699 (clinical isolate), and Acinetobacter baumannii strain DF1000 (clinical isolate) (Figure S6a–c).
Figure 8 Permeabilization of the outer membrane renders E. coli susceptible to 1771 and 13. Bacterial growth curves of (a) 1771 and (b) 13 (0–64 μg/mL) in combination with 0, 25, 50, and 100 μg/mL of PAβN. The bacterial growth (OD600nm) was plotted against time following 18 h of growth at 37 °C. The icons represent the mean of three biological replicates.

[2] = system: Pseudomonas aeruginosa strain PAO1; assay: Growth inhibition in combination with PAβN; format: cell-based; settings: 32 μg/mL compound with 100 μg/mL PAβN
Procedure: as §1
Figure S6. Permeabilization of the outer membrane renders Gram-negative bacteria susceptible to 1771 and compound 13. Bacterial growth curves of A) Klebsiella pneumoniae, B) Acinetobacter baumannii and C) Pseudomonas aeruginosa against 1771 and 13 (0 – 64 µg/ml) in combination with 0, 25, 50, 100 µg/ml of PAβN. The bacterial growth (OD 600nm) was […]
(1 picture or pasted object on this page, not shown here)

[3] = system: MRSA strains LAC and EMRSA-15; assay: Serial passage resistance study; format: cell-based, Staphylococcus aureus; settings: 25 days serial passage, after 14 days, then stable for 11 days
Procedure: plotted against time following 18 hours of growth at 37 °C. The icons represent the mean of three biological replicates.
Supplementary Materials and Methods
Synergistic activity with clinically relevant antibiotics
The synergistic ability of 1771 and 13 was achieved using the chequerboard micro-broth dilution method. Antibiotic partners tested included: oxacillin, daptomycin, vancomycin, gentamicin, and linezolid with starting concentrations of 256 µg/ml, 8 µg/ml, 8 µg/ml, 4 µg/ml, and 8 µg/ml respectively. Overnight cultures were sub-cultured 1:200 in fresh MHB and grown to optical density of OD600nm of 0.5-0.6 and prepared according to the MIC analysis. Following an 18 h incubation at 37 °C the sum of the fractional inhibitory […]
using the equation ΣFIC = FICA +FICB = (MICA in combination with B/MICA) + (MICB in combination with A/MICB). The resulting value was interpreted according to the following rules: synergistic (FIC ≤ 0.5), additive (FIC >0.5, <1) or indifferent (FIC ≥ 1 <4).
Serial passage resistance study
A serial passage in 1771 was performed using MRSA strains, LAC and EMRSA-15. For this assay, 15 ml tubes were filled with 3 ml of MHB and varying concentrations of 1771. The tubes containing either LAC or EMRSA-15 were incubated at 37 °C for 24 h before each passage. […]

S. aureus = system: S. aureus; set-up: method as in PMID 23401520; settings: incubation for 3–4 days; cited from earlier work
LTA = system: LTA; set-up: method as in PMID 23401520; settings: cited from earlier work
E. coli strain K12 [4] = system: E. coli strain K12; set-up: method as in PMID 23401520; settings: initial small-molecule library screen; cited from earlier work
LtaS = system: LtaS; set-up: method as in PMID 29300473; settings: LtaS in artificial liposomes; cited from earlier work
[5] = E. coli K12, 25 μg/mL PAβN, growth rate severely impacted dose-dependently
[6] = E. coli K12, without PAβN (0 μg/mL), 18 h

| SMILES | MIC (B. subtilis (W168)) [µg/mL] | growth inhibitory concentration (E. coli strain K12 [1]; [5]) [µg/mL] | concentration at which growth was completely inhibited (E. coli strain K12 [1]) [µg/mL] | growth inhibitory concentration (E. coli strain K12 [1]; [6]) [µg/mL] | MIC (E. coli strain K12 [1]) [µg/mL] | growth of PAO1 [2] | change of MIC on serial passage [3] | resistant mutant selection (S. aureus) | LTA signal (LTA) | effect on the growth of Escherichia coli (E. coli strain K12 [4]) | inhibition of LtaS polymerization activity (LtaS) |
| --- | --- | --- | --- | --- | --- | --- | --- | --- | --- | --- | --- |
| O=C(COC(=O)Cc1coc2ccc3ccccc3c12)Nc1nnc(-c2ccc(S(F)(F)(F)(F)F)cc2)o1 [Compound 13, 2-Oxo-2-((5-(4-(pentafluoro-l6-sulfaneyl)phenyl)-1,3,4-oxadiazol-2-yl)amino)ethyl 2-(Naphtho[2,1-b]furan-1-yl)acetate] | 0.5 to 1 (≈ 0.903 to 1.81 µM) | > 64 | 64 | > 64 | 1 | severely inhibited |  |  |  |  |  |
| O=C(COC(=O)Cc1coc2ccc3ccccc3c12)Nc1nnc(-c2ccccc2)o1 [Compound 1771, 2-Oxo-2-((5-phenyl-1,3,4-oxadiazol-2-yl)amino)ethyl 2-(Naphtho[2,1-b]furan-1-yl)acetate, reference compound] | 4 to 8 (≈ 9.36 to 18.7 µM) | > 64 | 64 | > 64 | 4 |  | increased twofold | did not result in resistant mutant selection | dose-dependent reduction in the LTA signal | no effect on the growth | did not show inhibitory activity |

Source: PMC10644342, “Improved Antibacterial Activity of 1,3,4-Oxadiazole-Based Compounds That Restrict Staphylococcus aureus Growth Independent of LtaS Function” (ACS Infectious Diseases, 2023)
